Patent US20010039287A1, “AROMATIC SULFONE HYDROXAMIC ACID METALLOPROTEASE INHIBITOR” (priority 1997, published 2001)

Tests used:
[1] = tested on: solid tumor cancers (colorectal, pancreatic, ovarian, prostate); conditions: cited from earlier work
[2] = tested on: neovascularization of the corneal stroma; assay: In vivo angiogenesis assay (corneal micropocket, bFGF pellet); conditions: mouse corneal micropocket, 50 mpk bid po, day five, area of neovascularization vs control
Description: The study of angiogenesis depends on a reliable and reproducible model for the stimulation and inhibition of a neovascular response. The corneal micropocket assay provides such a model of angiogenesis in the cornea of a mouse. See, A Model of Angiogenesis in the Mouse Cornea; Kenyon, B M, et al., Investigative ophthalmology & Visual Science, July 1996, Vol. 37, No. 8.
In this assay, uniformLy sized Hydron™ pellets containing bFGF and sucralfate were prepared and surgically implanted into the stroma mouse cornea adjacent to the temporal limbus. […]
Mice were dosed on a daily basis for the duration of the assay. […] At day five, the degree of angiogenic inhibition was scored by viewing the neovascular progression with a slit lamp microscope.
The mice were anesthetized and the studied eye was once again proptosed. The maximum vessel length of neovascularization, extending from the limbal vascular plexus toward the pellet was measured. In addition, the contiguous circumferential zone of neovascularization was measured as clock hours, where 30 degrees of arc equals one clock hour. The area of angiogenesis was calculated as follows. […]
Five to six mice were utilized for each compound in each study. The studied mice were thereafter compared to control mice and the difference in the area of neovascularization was recorded as an averaged value. […]

[3] = tested on: PC-3 human pancreatic cancer cells (ATCC CRL 1435); assay: In vivo PC-3 tumor reduction; set-up: species or system mouse; conditions: PC-3 tumor in Balb/c nu/nu mice, day 25-30
Description: PC-3 human pancreatic cancer eclls (ATCC CRL 1435) were grown to 90% confluence in F12/MEM (Gibco) containing 7% FBS (Gibco). Cells were mechanically harvested using a rubber scraper, and then washed twice with cold medium. The resulting cells were resuspended in cold medium with 30% matrigel (Collaborative Research) and the cell-containing medium was maintained on ice until used.
Balb/c nu/nu mice at 7-9 weeks of age were anesthetized with avertin [2,2, 2-tribromethanol/t-amyl alcohol (1 g/l mL) diluted 1:60 into phosphate-buffered sline] and 3-5×10^6 of the above cells in 0.2 mL of medium were injected into the left flank of each mouse. Cells were injected in the morning, whereas dosing with an inhibitor began at 6 PM. The animals were gavaged BID from day zero (cell injection day) to day 25-30, at which time the animals were euthanized and tumors weighed.
Compounds were dosed at 10 mg/mL in 0.5% methylcellulose/0.1% polysorbate 80 to provide a 50 mg/kg (mpk) dose twice each day, or diluted to provide a 10 mg/kg (mpk) dose twice each day. Tumor measurements began on day 7 and continued every third or fourth day until completion of the study. Groups of ten mice were used in each study and nine to ten survived. Each group of mice so studied constitutes an “n” value of one, so that “n” values greater than one represent multiple studies whose averaged result is provided in the table. […]

CNC(=O)[C@@H](NC(=O)[C@H](CC(C)C)[C@H](O)C(=O)NO)C(C)(C)C [marimastat]
most common drug-related toxicity ([1]; clinical trials, patients): musculoskeletal pain and stiffness
cancer-specific antigens used as surrogate markers for biological activity ([1]; patients with advanced, rapidly progressive, treatment-refractory solid tumor cancers): dose-related reduction in the rise of cancer-specific antigens
Inhibition of Angiogenesis [2]: 48 (n = 6) percent
Average Percentage Reduction In Tumor Weight ([3]; 10 mpk BID gavage): <5 Percentage
Average Percentage Reduction In Tumor Weight ([3]; 50 mpk BID gavage): 39 (n = 2) Percentage
